The conditions of assay [1]: cited from earlier work.
Assay [2] deals with SPR (Spiky Rotating Cells). The assay can be described thus: Treatment of patients with SPR infection. It counts as in vivo, human. The settings on record: oral treatment of patients. The text has this:
My discovery of the novel SPR organism also provides for the treatment of SPR infections in male and female patients. The method involves first diagnosing the SPR infection, and then, upon obtaining a positive diagnosis, administering to the patient an SPR-inhibiting amount of an anti-SPR agent selected from the group consisting of itraconazole, ofloxacin, metronidazole.
One such drug is itraconazole, sold under the trade name SPORANOX®, available from Jansen Pharmaceuticals. The patient ingests one 200 mg tablet per day for three-four weeks.
The patient takes 500 mg twice per day for six weeks.
Yet another drug that is effective in treating SPR infection is ofloxacin, sold under the trade name FLOXIN®. The patient takes 400 mg twice per day for two weeks.

A further assay concerns Ureaplasma. The settings on record: Stamm and colleagues; cited from earlier work.
The subject of another assay is Chlamydia. Conditions: single dose (Martin); cited from earlier work.

As for `Cc1ncc([N+](=O)[O-])n1CCO` [metronidazole], the “clinical efficacy in refractory cases” value in assay [1] (refractory cases, smaller series (Toth)) is reported as “good clinical efficacy”. The “effectiveness in treating infection with SPR” value in assay [2] was “can be used to treat SPR infection”.
`CC[C@H]1OC(=O)[C@H](C)[C@@H](O[C@H]2C[C@@](C)(OC)[C@@H](O)[C@H](C)O2)[C@H](C)[C@@H](O[C@@H]2O[C@H](C)C[C@H](N(C)C)[C@H]2O)[C@](C)(O)C[C@@H](C)CN(C)[C@H](C)[C@@H](O)[C@]1(C)O` [Azithromycin]: the “Ureaplasma cases that responded” value in the assay with Ureaplasma is 47%. In assay [1] (Stamm and colleagues), the “cases of NGU cured” value was 78% and the “overall effectiveness in NGU compared with Doxycycline” value is recorded as “overall as effective as Doxycyline”. Moreover, the “efficacy in uncomplicated chlamydial urethritis compared with Doxycycline” value in the assay on Chlamydia is on record as “comparable to Doxycycline”.

These data come from patent publication US6955908B1, “Organism associated with nongonococcal urethritis” (priority 2000, dated 2005).
